Measurements from patent US12552783B2, “Modulators of proteolysis and associated methods of use” (Arvinas Operations, Inc., priority 2018, dated 2026).

Biological target: KRas (Homo sapiens, UniProt P01116, G12C)
Assay: KRas degradation in NCI-H2030 cells by Western blot, normalized to GAPDH (data of Table 14)
Format: cell-based
Set-up: host or cells: NCI-H2030
Conditions: for Dmax: NCI-H2030
How it was run: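 Degradation of endogenous homozygous G12C KRas is measured by immunoblot after serum starvation and compound exposure at three final concentrations (0.3, 1 and 3 μM). VHL-recruiting compounds are incubated 24 h and all others 72 h. Percent loss is calculated from GAPDH-normalized KRas relative to vehicle.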

SMILES	Percent Degradation at Indicated Concentration (μM) (H2030, 0.3 μM)	Percent Degradation at Indicated Concentration (μM) (H2030, 1 μM)	Percent Degradation at Indicated Concentration (μM) (H2030, 3 μM)	Dmax	Percent Degradation at Indicated Concentration (μM) (H2030 cells, 3 μM)	Percent Degradation at Indicated Concentration (μM) (H2030 cells, 0.3 μM)	Percent Degradation at Indicated Concentration (μM) (H2030 cells, 1 μM)
Cc1ncsc1-c1ccc([C@H](C)NC(=O)[C@@H]2C[C@@H](O)CN2C(=O)[C@@H](NC(=O)COCCOCCN(C)C(=O)CCNc2nc(N3CCN(C(=O)C(O)O)CC3)c3cc(Cl)c(-c4c(O)cccc4F)c(F)c3n2)C(C)(C)C)cc1 (atropisomer, axis not shown) [compound 237, (2S,4R)-1-((S)-2-(tert-butyl)-15-(((R)-6-chloro-4-(4-(2,2-dihydroxyacetyl)piperazin-1-yl)-8-fluoro-7-(2-fluoro-6-hydroxyphenyl)quinazolin-2-yl)amino)-12-methyl-4,13-dioxo-6,9-dioxa-3,12-diazapentadecanoyl)-4-hydroxy-N-((S)-1-(4-(4-methylthiazol-5-yl)phenyl)ethyl)pyrrolidine-2-carboxamide]	C (Percent Degradation: C ≤ 35)	C (Percent Degradation: C ≤ 35)	C (Percent Degradation: C ≤ 35)	≤ 35%			
CN(CCOCCOc1ccc2c(c1)CN(C1CCC(=O)NC1=O)C2=O)C(=O)CCNc1nc(N2CCN(C(N)=O)CC2)c2cc(Cl)c(-c3cc(O)cc4ccccc34)c(F)c2n1 (stereo not shown) [compound 37, 4-(6-chloro-2-((3-((2-(2-((2-(2,6-dioxopiperidin-3-yl)-1-oxoisoindolin-5-yl)oxy)ethoxy)ethyl)(methyl)amino)-3-oxopropyl)amino)-8-fluoro-7-(3-hydroxynaphthalen-1-yl)quinazolin-4-yl)piperazine-1-carboxamide]	C (Percent Degradation: C ≤ 35)	C (Percent Degradation: C ≤ 35)	C (Percent Degradation: C ≤ 35)	≤ 35%			
Cc1ncsc1-c1ccc([C@H](C)NC(=O)[C@@H]2C[C@@H](O)CN2C(=O)[C@@H](NC(=O)COCCOCCOCCN(C)C(=O)CCNc2nc(N3CCN(C(=O)C(O)O)CC3)c3cc(Cl)c(-c4c(O)cccc4F)c(F)c3n2)C(C)(C)C)cc1 (atropisomer, axis not shown) [compound 238, (2S,4R)-1-((S)-2-(tert-butyl)-18-((6-chloro-4-(4-(2,2-dihydroxyacetyl)piperazin-1-yl)-8-fluoro-7-((S)-2-fluoro-6-hydroxyphenyl)quinazolin-2-yl)amino)-15-methyl-4,16-dioxo-6,9,12-trioxa-3,15-diazaoctadecanoyl)-4-hydroxy-N-((S)-1-(4-(4-methylthiazol-5-yl)phenyl)ethyl)pyrrolidine-2-carboxamide]					C (Percent Degradation: C ≤ 35)		
CN(C)C(=O)CCNc1nc(N2CCN(C(=O)/C=C/CCOCCOCCOCCOc3ccc4c(c3)C(=O)N(C3CCC(=O)NC3=O)C4=O)CC2)c2cc(Cl)c(-c3cc(O)cc4ccccc34)c(F)c2n1 (stereo not shown) [compound 174, (E)-3-((6-chloro-4-(4-(5-(2-(2-(2-((2-(2,6-dioxopiperidin-3-yl)-1,3-dioxoisoindolin-5-yl)oxy)ethoxy)ethoxy)ethoxy)pent-2-enoyl)piperazin-1-yl)-8-fluoro-7-(3-hydroxynaphthalen-1-yl)quinazolin-2-yl)amino)-N,N-dimethylpropanamide]	C (Percent Degradation: C ≤ 35)	C (Percent Degradation: C ≤ 35)	C (Percent Degradation: C ≤ 35)	≤ 35%			
C=CC(=O)N1CCN(c2nc(NCCC(=O)N(C)CCOCCOc3cc(-c4scnc4C)ccc3CNC(=O)[C@@H]3C[C@@H](O)CN3C(=O)[C@@H](c3cc(C)no3)C(C)C)nc3c(F)c(-c4c(O)cccc4F)c(Cl)cc23)CC1 (atropisomer, axis not shown) [compound 128, (25,4R)-N-(2-(2-(2-(3-(((S)-4-(4-acryloylpiperazin-1-yl)-6-chloro-8-fluoro-7-(2-fluoro-6-hydroxyphenyl)quinazolin-2-yl)amino)-N-methylpropanamido)ethoxy)ethoxy)-4-(4-methylthiazol-5-yl)benzyl)-4-hydroxy-1-((R)-3-methyl-2-(3-methylisoxazol-5-yl)butanoyl)pyrrolidine-2-carboxamide]	C (Percent Degradation: C ≤ 35)	C (Percent Degradation: C ≤ 35)	C (Percent Degradation: C ≤ 35)	≤ 35%			
CN(CCOCCOc1ccc2c(c1)C(=O)N(C1CCC(=O)NC1=O)C2=O)C(=O)CCNc1nc(N2CCN(C(=O)C(O)O)CC2)c2cc(Cl)c(-c3c(O)cccc3F)c(F)c2n1 [compound 150, 3-(((R)-6-chloro-4-(4-(2,2-dihydroxyacetyl)piperazin-1-yl)-8-fluoro-7-(2-fluoro-6-hydroxyphenyl)quinazolin-2-yl)amino)-N-(2-(2-((2-(2,6-dioxopiperidin-3-yl)-1,3-dioxoisoindolin-5-yl)oxy)ethoxy)ethyl)-N-methylpropanamide]					C (Percent Degradation: C ≤ 35)	C (Percent Degradation: C ≤ 35)	C (Percent Degradation: C ≤ 35)
C=CC(=O)N1CCN(c2nc(NCCC(=O)N(C)CCOCC(=O)N[C@H](C(=O)N3C[C@H](O)C[C@H]3C(=O)N[C@@H](C)c3ccc(-c4scnc4C)cc3)C(C)(C)C)nc3c(F)c(-c4c(O)cccc4F)c(Cl)cc23)CC1 (atropisomer, axis not shown) [compound 206, (2S,4R)-1-((S)-2-(2-(2-(3-(((R)-4-(4-acryloylpiperazin-1-yl)-6-chloro-8-fluoro-7-(2-fluoro-6-hydroxyphenyl)quinazolin-2-yl)amino)-N-methylpropanamido)ethoxy)acetamido)-3,3-dimethylbutanoyl)-4-hydroxy-N-((S)-1-(4-(4-methylthiazol-5-yl)phenyl)ethyl)pyrrolidine-2-carboxamide]	C (Percent Degradation: C ≤ 35)	C (Percent Degradation: C ≤ 35)	C (Percent Degradation: C ≤ 35)	≤ 35%			
C=CC(=O)N1CCN(c2nc(NCCC(=O)N(C)CCOCCOCCOCC(=O)N[C@H](C(=O)N3C[C@H](O)C[C@H]3C(=O)N[C@@H](C)c3ccc(-c4scnc4C)cc3)C(C)(C)C)nc3c(F)c(-c4c(O)cccc4F)c(Cl)cc23)CC1 (atropisomer, axis not shown) [compound 210, (2S,4R)-1-((S)-18-((4-(4-acryloylpiperazin-1-yl)-6-chloro-8-fluoro-7-((R)-2-fluoro-6-hydroxyphenyl)quinazolin-2-yl)amino)-2-(tert-butyl)-15-methyl-4,16-dioxo-6,9,12-trioxa-3,15-diazaoctadecanoyl)-4-hydroxy-N-((S)-1-(4-(4-methylthiazol-5-yl)phenyl)ethyl)pyrrolidine-2-carboxamide]	C (Percent Degradation: C ≤ 35)	C (Percent Degradation: C ≤ 35)	C (Percent Degradation: C ≤ 35)	≤ 35%			
